Assay results reported in patent US20230151014A1 (Repare Therapeutics Inc., priority 2020, published 2023).

Molecular target: T1, recombinant human Myt1 (Homo sapiens, UniProt Q99640)
T1 construct: full length PKMYT1 recombinant human protein expressed in insect cells
T1 sequence (Q99640 1-499): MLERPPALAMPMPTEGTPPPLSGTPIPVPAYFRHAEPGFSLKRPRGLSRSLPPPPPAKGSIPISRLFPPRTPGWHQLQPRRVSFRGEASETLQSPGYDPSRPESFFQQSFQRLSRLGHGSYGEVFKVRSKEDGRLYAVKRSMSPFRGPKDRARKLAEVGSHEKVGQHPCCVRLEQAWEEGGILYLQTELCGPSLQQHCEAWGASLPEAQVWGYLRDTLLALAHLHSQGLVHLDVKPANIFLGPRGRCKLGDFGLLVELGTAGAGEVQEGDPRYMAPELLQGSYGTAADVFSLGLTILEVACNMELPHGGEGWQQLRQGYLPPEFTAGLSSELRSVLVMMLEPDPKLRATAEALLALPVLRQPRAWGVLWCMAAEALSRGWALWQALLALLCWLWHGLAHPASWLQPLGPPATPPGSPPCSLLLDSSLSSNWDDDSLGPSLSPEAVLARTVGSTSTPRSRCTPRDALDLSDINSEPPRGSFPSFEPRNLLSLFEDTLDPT
Assay: Myt1 enzymatic assay (ADP-Glo kinase assay, IC50 and % max inhibition)
Format: biochemical
Conditions: recombinant human Myt1 18 nM, ATP 10 μM
Description: Detection of Myt1 kinase activity utilized a recombinant human Myt1 kinase assay measuring the hydrolysis of ATP using a commercially available ADP-Glo Assay (ADP-Glo™ Kinase Assay from Promega, 10 000 assays, #V9102). […] After this, 5 μL of compounds (diluted in reaction buffer to 0.5% DMSO) was added to the microplate and the plate was spun briefly and incubated at 22° C. for 15 minutes. Ultra-Pure Adenosine Triphosphate (ATP) solution (ADP-Glo kit from Promega) was diluted in reaction buffer and 5 μL was added to the microplate, spun down briefly and incubated for 60 minutes at 30° C. […] After the 60-minute incubation, 15 μL of ADP-Glo reagent was added and the plate was spun briefly and sealed and incubated in the dark for 40 minutes at 22° C. […] Luminescence was read using the Envision (250 ms integration). The IC50 and the % max inhibition were calculated for each inhibitor compound tested.

IC50 | SMILES
13 nM | Cc1ccc(O)c(C)c1-n1c(N)c(C(N)=O)c2ncc(C#CC3(C)CCCO3)nc21 (centres unmarked) [Compound 235]
16 nM | Cc1ccc(O)c(C)c1-n1c(N)c(C(N)=O)c2ncc(C#CC3(O)CCOC3)nc21 (centres unmarked) [Compound 236]
19 nM | Cc1ccc(O)c(C)c1-n1c(N)c(C(N)=O)c2ncc(C#CCC3(O)CCOCC3)nc21 [Compound 237]
10 nM | COC(C)(C)C#Cc1cnc2c(C(N)=O)c(N)n(-c3c(C)ccc(O)c3C)c2n1 [Compound 238]
15 nM | Cc1ccc(O)c(C)c1-n1c(N)c(C(N)=O)c2ncc(C#CC(C)(C)O)nc21 [Compound 239]
191 nM | COCCOCC#Cc1cnc2c(C(N)=O)c(N)n(-c3c(C)ccc(O)c3C)c2n1 [Compound 240]
24 nM | Cc1ccc(O)c(C)c1-n1c(N)c(C(N)=O)c2ncc(C#C[C@@H](C)O)nc21 [Compound 241]
< 10 nM | Cc1ccc(O)c(C)c1-n1c(N)c(C(N)=O)c2ncc(C#CC3(O)CCC(F)(F)CC3)nc21 [Compound 242, 6-amino-3-[2-(4,4-difluoro-1-hydroxy-cyclohexyl)ethynyl]-5-(3-hydroxy-2,6-dimethyl-phenyl)pyrrolo[2,3-b]pyrazine-7-carboxamide]
69 nM | Cc1ccc(O)c(C)c1-n1c(N)c(C(N)=O)c2nc(C(=O)Nc3cccnc3)cnc21 [Compound 243, 6-amino-5-(3-hydroxy-2,6-dimethyl-phenyl)-N2-(3-pyridyl)pyrrolo[2,3-b]pyrazine-2,7-dicarboxamide]
16 nM | CCNC(=O)c1cnc2c(n1)c(C(N)=O)c(N)n2-c1c(C)ccc(O)c1C [Compound 244]
11 nM | Cc1ccc(O)c(C)c1-n1c(N)c(C(N)=O)c2nc(C(=O)NCc3ccccc3)cnc21 [Compound 245]
84 nM | CCN(CC)C(=O)c1cnc2c(n1)c(C(N)=O)c(N)n2-c1c(C)ccc(O)c1C [Compound 246]
17 nM | Cc1ccc(O)c(C)c1-n1c(N)c(C(N)=O)c2nc(-c3cc4ccccc4n3C)cnc21 [Compound 247]
< 10 nM | Cc1ccc(O)c(C)c1-n1c(N)c(C(N)=O)c2nc(-c3nc4ccccc4s3)cnc21 [Compound 248]
20 nM | Cc1ccc(O)c(C)c1-n1c(N)c(C(N)=O)c2nc(-c3nc4ccccc4o3)cnc21 [Compound 249]
< 10 nM | Cc1ccc(O)c(C)c1-n1c(N)c(C(N)=O)c2nc(-c3ccnnc3)cnc21 [Compound 250]
24 nM | Cc1ccc(O)c(C)c1-n1c(N)c(C(N)=O)c2nc(N3CC4(COC4)C3)cnc21 [Compound 253]
10 nM | Cc1ccc(O)c(C)c1-n1c(N)c(C(N)=O)c2nc(-c3nc4ccccc4n3C)cnc21 [Compound 254]
109 nM | Cc1ccc(O)c(C)c1-n1c(N)c(C(N)=O)c2nc(-c3nc(C)c(C)o3)cnc21 [Compound 255]
50 nM | Cc1ccc(O)c(C)c1-n1c(N)c(C(N)=O)c2nc(C3CC3)c(C3CC3)nc21 [Compound 256]
43 nM | C=Cc1cnc2c(C(N)=O)c(N)n(-c3c(C)ccc(O)c3C)c2n1 [Compound 257, 6-amino-5-(3-hydroxy-2,6-dimethyl-phenyl)-3-vinyl-pyrrolo[2,3-b]pyrazine-7-carboxamide]
3130 nM | Cc1ccc(O)c(C)c1-n1c(N)c(C(N)=O)c2nc(-c3cccc(OC4CCOCC4)n3)cnc21 [Compound 258]
< 10 nM | C=Cc1cnc2c(n1)c(C(N)=O)c(N)n2-c1c(C)ccc(O)c1C [Compound 259]
27 nM | Cc1ccc(O)c(C)c1-n1c(N)c(C(N)=O)c2nc(OC3CC3)cnc21 [Compound 260, 6-amino-2-(cyclopropoxy)-5-(3-hydroxy-2,6-dimethyl-phenyl)pyrrolo[2,3-b]pyrazine-7-carboxamide]

IC50 | SMILES
< 10 nM | Cc1ccc(O)c(C)c1-n1c(N)c(C(N)=O)c2nc3c(nc21)CCCC3 [Compound 262]
16 nM | Cc1ccc(O)c(C)c1-n1c(N)c(C(N)=O)c2nc(C(F)F)cnc21 [Compound 263, 6-amino-2-(difluoromethyl)-5-(3-hydroxy-2,6-dimethyl-phenyl)pyrrolo[2,3-b]pyrazine-7-carboxamide]
> 5000 nM | Cc1ccc(O)c(C)c1-n1c(N)c(S(C)(=O)=O)c2nc(-c3cnccn3)cnc21 [Compound 278]
250 nM | Cc1ccc(O)c(C)c1-n1c(N)c(C(N)=O)c2nc(C#CC3CCNC3)cnc21 (centres unmarked) [Compound 279]
80 nM | Cc1ccc(O)c(C)c1-n1c(N)c(C(N)=O)c2nc(CCC3CCNC3)cnc21 (centres unmarked) [Compound 280]
784 nM | Cc1ccc(O)cc1-n1c(N)c(C(N)=O)c2nc(OCc3ccccc3)cnc21 [Compound 281]
625 nM | Cc1ccc(O)cc1-n1c(N)c(C(N)=O)c2nc(NCc3ccccc3)cnc21 [Compound 282]
32 nM | Cc1ccc(O)c(C)c1-n1c(N)c(C(N)=O)c2nc(C#CC(=O)Nc3ccc(F)cc3)cnc21 [Compound 283]
238 nM | Cc1ccc(O)cc1-n1c(N)c(C(N)=O)c2nc(OCc3cccnc3)cnc21 [Compound 284]
11 nM | Cc1cnc2c(n1)c(C(N)=O)c(N)n2-c1c(C)ccc(O)c1C [Compound 285]
< 10 nM | Cc1ccc(O)c(Br)c1-n1c(N)c(C(N)=O)c2cc(Cl)cnc21 [Compound 289]
< 10 nM | Cc1ccc(O)c(C)c1-n1c(N)c(C(N)=O)c2cc(-c3ccccn3)cnc21 [Compound 295]
< 10 nM | Cc1ccc(O)c(C)c1-n1c(N)c(C(N)=O)c2cc(N3CCCC3=O)cnc21 [Compound 298]
13 nM | Cc1c(O)ccc(Br)c1-n1c(N)c(C(N)=O)c2cc(Cl)cnc21 [Compound 301]
< 10 nM | Cc1ccc(O)c(C)c1-n1c(N)c(C(N)=O)c2cc(C3=CCOCC3)cnc21 [Compound 304]
< 10 nM | Cc1ccc(O)c(C)c1-n1c(N)c(C(N)=O)c2cc(-c3nccs3)cnc21 [Compound 308]
< 10 nM | Cc1ccc(O)c(C)c1-n1c(N)c(C(N)=O)c2cc(S(=O)(=O)C3CC3)cnc21 [Compound 311]
< 10 nM | Cc1ccc(O)c(C)c1-n1c(N)c(C(N)=O)c2cc(C#N)cnc21 [Compound 312]
< 10 nM | Cc1ccc(O)c(C)c1-n1c(N)c(C(N)=O)c2c(C)c(Cl)cnc21 [Compound 313]
< 10 nM | Cc1ccc(O)c(C)c1-n1c(N)c(C(N)=O)c2c(Cl)c(Cl)cnc21 [Compound 316]
< 10 nM | Cc1ccc(O)c(C)c1-n1c(N)c(C(N)=O)c2cc(I)cnc21 [Compound 319]
< 10 nM | Cc1ccc(O)c(Cl)c1-n1c(N)c(C(N)=O)c2cc(Cl)cnc21 [Compound 327]
< 10 nM | Cc1ccc(O)c(C)c1-n1c(N)c(C(N)=O)c2cccnc21 [Compound 328]
